Experimental data reported in patent US9820497B2, “Astaxanthin-containing pet foods” (FUJI CHEMICAL INDUSTRY CO., LTD, priority 2003, dated 2017).

Key:
[1] = test system: dogs; test: Health conditions of the dogs before and during administration; assay type: in vivo, dog; conditions: four dogs, before and during the 4 weeks of administration
Method: (§1) Four dogs were fed only with the same commercially available dog food for 3 months or more, and thereafter, two AstaReal tablets (manufactured by Natureal Corporation, containing 0.67 mg of free astaxanthin per tablet in terms of free astaxanthin) per day were given to the dogs at dinner for 4 weeks. […] The feces discharged before and after administration of astaxanthin were collected. Samples were prepared each by taking a piece from the top portion, middle portion and end portion in the same amount and mixing these pieces. The samples were placed in a shielded vessel of 100 ml in volume and kept in dark and used in tests within 24 hours.

[2] = known; cited from earlier work
[3] = as high as β-carotene; cited from earlier work
[4] = Feces odor test (odor tester KALMOR-Σ) before and after administration; assay type: in vivo, dog; conditions: four dogs, 4 weeks of administration; conclusion from Table 3
Method: as §1
Odor of the samples was measured by an odor tester (KALMOR-Σ, manufactured by Kalmor Co.) in a room maintained at 22° C. To explain more specifically, the odor of an airtight vinyl bag of 280 mm×200 mm containing no sample was measured as an initial value by inserting a test probe. Then, 100 mg of sample was weighed, placed in the vinyl bag and stand still for 15 minutes. The odor of the vinyl bag having the sample placed therein was measured (measured value). The value of the odor was obtained by subtracting the initial value from the measured value.

CC1=C(/C=C/C(C)=C/C=C/C(C)=C/C=C/C=C(C)/C=C/C=C(C)/C=C/C2=C(C)C(=O)C(O)CC2(C)C)C(C)(C)CC(O)C1=O (stereo not drawn) [astaxanthin, 3,3′-dihydroxy-β,β-carotene-4,4′-dione]
health conditions (diarrhea, fatigue) [1]: healthy conditions without exhibiting diarrhea and fatigue
mutagenicity [2]: no mutagenicity is observed
antioxidative action relative to β-carotene [3]: about 40 times
odor of the excrement [4]: clearly is decreased
